Assay results reported in patent publication US20050014849A1, “Antifungal phenylethylene” (priority 2001, published 2005).
In brackets after ≈: the same amount, converted by molar mass.

Legend:
[1] = system: C. neoformans (ATCC 90112); test: Frequency of occurrence of spontaneous mutants; assay type: cell-based, Cryptococcus neoformans; details: four times the broth macrodilution MIC
Description: Determination of the frequency of occurrence of spontaneous mutants was performed as previously described. Overnight cultures of C neoformans (ATCC 90112), C. albicans (ATCC 90028) and Trichosporon inkin (ATCC 18020) were diluted to an OD530 nm=0.3. 0.1 ml of each preparation was spread onto SDA plates containing four or eight times the broth macrodilution MIC of TMPN. The starting inoculum for each organism was also diluted and plated onto drug-free SDA plates for determination of cfu/ml. After a 48 h incubation at the appropriate temperature (see Fungal Strains section above), the number of colonies on drug-supplemented SDA was counted. The frequency of occurrence of spontaneous mutants was calculated by dividing the number of colonies on drug-containing plates by the number of colonies in the inoculum. When no colonies were visualized on drug-containing plates, the calculation was (<) 1 colony divided by the number of colonies in the inoculum.

[2] = system: Aspergillus fumigatus ATCC 96918; test: Broth macrodilution MIC/MFC, filamentous fungi; assay type: cell-based; details: for MFC / MIC: Aspergillus fumigatus
Description: (§1) Susceptibility testing of filamentous fungi was also conducted. Broth macrodilution susceptibility testing of P. lilacinus, Rhizopus spp. and Aspergillus spp. was performed in accordance with a proposed standardized procedure with slight modification. To induce conidium and sporangiospore formation, fungi were grown on PDA slants at 35° C. for 6 days (P. lilacinus, Rhizopus spp., all Aspergillus species except A. nidulans) or 3 days (A. nidulans). Fungal slants were covered with sterile 0.85% NaCl (P. lilacinus, Rhizopus spp., all Aspergillus species except A. nidulans) or 0.05% Tween 80 (A. nidulans), and suspensions were made by gently probing the colonies with the tip of a sterile Pasteur pipette. The resulting mixture of hyphal fragments and conidia or sporangiospores was withdrawn and transferred to a sterile clear microcentrifuge tube, and heavy particles were allowed to settle for 10 min. The upper homogenous suspension was transferred to a sterile microcentrifuge tube, vortexed for 15 s, adjusted spectrophotometrically, and diluted in sterile 0.165 M MOPS-buffered RPMI medium, pH 7.0, to yield final inocula ranging from 0.5-2.5×10^3 cfu/ml. Susceptibility to TMPN was then determined by broth macrodilution as described above for yeast isolates. MICs were read after 48 h The MIC was defined as the lowest concentration of TMPN that inhibited all visible growth of the test organism (optically clear).
(§2) Minimum fungicidal concentrations (MFCs) were determined by subculturing 0.1 ml from each tube with no visible growth in the MIC broth macrodilution series onto the appropriate drug-free plates (see Fungal Strains section above).
Possible host effects were also evaluated. Broth macrodilution assays were performed with RPMI medium prepared at pH 5, pH 6, and pH 7, and in RPMI medium with and without 50% normal human serum (Lampire Biological Labs). The pH experiments were performed twice on separate days.

[3] = system: Staphylococcus aureus ATCC 29213; test: NCCLS disk susceptibility test; assay type: cell-based; details: disk diffusion
Description: (§3) Antimicrobial activity was assayed by National Committee for Clinical Laboratory Standards (NCCLS) disk susceptibility tests. Isolated colonies from overnight cultures were suspended and diluted as recommended to yield approximately 1-2×10^8 cfu/ml, and 50 μl of this preparation immediately spread on agar plates. NCCLS recommended agar media were used for S. pneumoniae and N. gonorrhoeae, and Mueller-Hinton agar for all other bacteria. Yeast strains were tested on SDA. Excess moisture was absorbed for 10 min prior to application of 6 mm paper discs containing two-fold dilutions of TMPN in sterile DMSO.

[4] = system: Proteus vulgaris Presque Isle 365; test: NCCLS disk susceptibility test; assay type: cell-based; details: disk diffusion
Description: as §3

[5] = system: Enterobacter cloacae ATCC 13047; test: NCCLS disk susceptibility test; assay type: cell-based; details: disk diffusion
Description: as §3

[6] = system: Staphylococcus epidermidis Presque Isle 4653; test: NCCLS disk susceptibility test; assay type: cell-based; details: disk diffusion
Description: as §3

[7] = system: Micrococcus luteus Presque Isle 456; test: NCCLS disk susceptibility test; assay type: cell-based; details: disk diffusion
Description: as §3

[8] = system: Enterococcus faecalis ATCC 29212; test: NCCLS disk susceptibility test; assay type: cell-based; details: disk diffusion
Description: as §3

[9] = system: Candida albicans ATCC 90028; test: NCCLS disk susceptibility test; assay type: cell-based; details: disk diffusion
Description: as §3

[10] = system: Escherichia coli ATCC 25922; test: NCCLS disk susceptibility test; assay type: cell-based; details: disk diffusion
Description: as §3

[11] = system: Bacillus subtilis Presque Isle 620; test: NCCLS disk susceptibility test; assay type: cell-based; details: disk diffusion
Description: as §3

[12] = system: Pseudomonas aeruginosa Presque Isle 99; test: NCCLS disk susceptibility test; assay type: cell-based; details: disk diffusion
Description: as §3

[13] = system: Stenotrophomonas maltophilia ATCC 13637; test: NCCLS disk susceptibility test; assay type: cell-based; details: disk diffusion
Description: as §3

[14] = system: A. flavus (ASU culture collection); test: Broth macrodilution MIC/MFC, filamentous fungi; assay type: cell-based, Aspergillus flavus
Description: as §1, with “The upper homogenous suspension was transferred to a sterile microcentrifuge tube, vortexed for 15 s, adjusted spectrophotometrically, and diluted in sterile 0.165 M MOPS-buffered RPMI medium, pH 7.0, to yield final inocula ranging from 0.5-2.5×10^3 cfu/ml.” left out, “MICs were read after 48 h The MIC was defined as the lowest concentration of TMPN that inhibited all visible growth of the test organism (optically clear).” left out
as §2

[15] = Aspergillus fumigatus ATCC 96918
[16] = ATCC96918, Aspergillus fumigatus ATCC 96918, 50% human serum
[17] = ATCC96918, Aspergillus fumigatus ATCC 96918, no serum
[18] = ATCC96918, pH 5, Aspergillus fumigatus ATCC 96918, pH 5
[19] = ATCC96918, pH 5, Aspergillus fumigatus ATCC 96918, pH 5, repeat experiment
[20] = ATCC96918, pH 6, Aspergillus fumigatus ATCC 96918, pH 6
[21] = ATCC96918, pH 6, Aspergillus fumigatus ATCC 96918, pH 6, repeat experiment
[22] = ATCC96918, pH 7, Aspergillus fumigatus ATCC 96918, pH 7
[23] = ATCC96918, pH 7, Aspergillus fumigatus ATCC 96918, pH 7, repeat experiment

In the case of COc1cc(C=C[N+](=O)[O-])cc(OC)c1OC [TMPN, 1-(3′,4′,5′-trimethoxyphenyl)-2-nitro-ethylene], the “frequency of occurrence of single-step resistant mutants” value [1] is reported as ≤ 10^−6, the “MFC Range” value [2, 15] is reported as >64 µg/mL and the “MIC Range” value [2, 15] is reported as 8 µg/mL (≈ 33.4 µM). For the same molecule, the MFC [2, 16] was > 64 µg/mL, the MIC [2, 16] was 16 µg/mL (≈ 66.9 µM) and the MFC [2, 17] was 16 µg/mL (≈ 66.9 µM). For the same molecule, the MIC [2, 17] was 8 µg/mL (≈ 33.4 µM), the MFC [2, 18] was 32 µg/mL (≈ 134 µM) and the MIC [2, 18] was 4 µg/mL (≈ 16.7 µM). For the same molecule, the MFC [2, 19] was > 64 µg/mL, the MIC [2, 19] was 8 µg/mL (≈ 33.4 µM) and the MFC [2, 20] was 32 µg/mL (≈ 134 µM). The MIC [2, 20] was 4 µg/mL (≈ 16.7 µM), the MFC [2, 21] was > 64 µg/mL and the MIC [2, 21] was 8 µg/mL (≈ 33.4 µM). For the same molecule, the MFC [2, 22] was 32 µg/mL (≈ 134 µM), the MIC [2, 22] was 4 µg/mL (≈ 16.7 µM) and the MFC [2, 23] was > 64 µg/mL. For the same molecule, the MIC [2, 23] was 8 µg/mL (≈ 33.4 µM), the MIC [3] was 3.12-6.25 μg/disk and the MIC [4] was 12.5-25 μg/disk. For the same molecule, the MIC [5] was >100 μg/disk, the MIC [6] was 50-100 μg/disk and the MIC [7] was 50-100 μg/disk. The MIC [8] was 50-100 μg/disk, the MIC [9] was 6.25-12.5 μg/disk and the MIC [10] was >100 μg/disk. For the same molecule, the MIC [11] was 50-100 μg/disk, the MIC [12] was >100 μg/disk and the MIC [13] was >100 μg/disk. For the same molecule, the “MFC Range” value [14] was >64 µg/mL and the “MIC Range” value [14] was 16 µg/mL (≈ 66.9 µM).
